Measured values taken from PubChem BioAssay (NCI).
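In this assay, cells in 96-well plates receive the compound at five concentrations for 48 hours. Endpoints are linearly interpolated between the surrounding concentrations. TGI: concentration producing complete growth inhibition.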

Key:
Experiment in all cases: DTP human tumour cell line panel, 48 h
[1] = tested on: SF-539 CNS
[2] = tested on: SK-MEL-5 melanoma
[3] = tested on: MDA-N
[4] = tested on: SN12C renal
[5] = tested on: ACHN renal
[6] = tested on: HOP-92 NSCLC
[7] = tested on: U251 CNS
[8] = tested on: BT-549 breast
[9] = tested on: CAKI-1 renal
[10] = tested on: MCF7 breast
[11] = tested on: SNB-75 CNS

SMILES | TGI [1] [µM] | TGI [2] [µM] | TGI [3] [µM] | TGI [4] [µM] | TGI [5] [µM] | TGI [6] [µM] | TGI [7] [µM] | TGI [8] [µM] | TGI [9] [µM] | TGI [10] [µM] | TGI [11] [µM]
O=c1[nH]c(=O)n(C2OC(CO)C(O)C2O)c2nc(-c3ccc(-c4ccccc4)cc3)cnc12 (configuration not stated) | > 100 | > 100 | > 100 | > 100 | > 100 | > 100 | > 100 | > 100 | > 100 | > 100 | > 100
COC(=O)C1CCC(=O)N1C(c1ccc(OC)cc1)c1ccc2c(c1)OCO2 (configuration not stated) | 98.6 | 81.7 | 27.3 | > 100 | > 100 | > 100 | > 100 | > 100 | > 100 | > 100 | 78.9
Cc1cn(C2CC(O)C(CO)O2)c(=O)[nH]c1=O (configuration not stated) | > 5000 | > 5000 | > 5000 | > 4240 | > 5000 | > 4830 | > 5000 | > 5000 | 4450 | > 4300 | > 4500
COc1cccc2c(=O)oc(-c3ccc(C(C)(C)C)cc3)nc12 | > 100 | 87.4 | > 100 | > 100 | > 100 | > 100 | > 100 | > 100 | > 100 | > 100 | > 100
CCOC(=O)c1cn2c(nc1=O)N[C@H]1CCCC[C@@H]12 | > 100 | > 100 | > 100 | > 100 | > 100 | > 100 | > 100 | > 100 | > 100 | > 100 | > 100
CC1=C[C@@H]2Cc3nc4cc(Cl)ccc4c(N)c3[C@H](C1)C2 | 25.3 | 11.2 | 31.5 | 29.6 | 23.1 | 10.8 | 37.7 | 31.7 | 17.4 | 23.3 | 17.9
CCOC(=O)c1nc2c(nc1C(=O)OCC)C(=O)c1ccccc1C2=O | 1.71 | 2.19 | 0.796 | 0.4 | 2.02 | 33.6 | 2.74 | 2.76 | 3.26 | 1.17 | 2.12
C=CCSc1nnc2cc(CN3CCCC3)c(-c3ccc(Cl)cc3)nn12 | 36.2 | 31.1 | 34.2 | 32.1 | 38.3 | 34.3 | 31.2 | 42.4 | 77.5 | 33.7 | 39.2
CCCCCCOc1ccc(C(=O)NOC)cc1 | > 100 | > 100 | > 100 | > 100 | > 100 | > 100 | > 100 | > 100 | > 100 | > 100 | > 100
Cc1c(S(=O)(=O)c2ccccc2)c(N)n(CCN(C)C)c1C | > 100 | > 100 | > 100 | > 100 | > 100 | > 100 | > 100 | > 100 | > 100 | > 100 | > 100
NC1=NCC(CN2CCOCC2)O1 (configuration not stated) | > 100 | > 100 | > 100 | > 100 | > 100 | > 100 | > 100 | > 100 | > 100 | > 100 | > 100
CCN(CC)CCn1c(=O)c2cccnc2n2c3c(=O)n(C)c(=O)n(C)c3nc12 | > 100 | > 100 | > 100 | > 100 | > 100 | > 100 | > 100 | > 100 | > 100 | > 100 | > 100
COc1ccc2c(c1)/C(=C\c1c(Cl)nc3sc(C)cn13)C(=O)N2 | 6.76 | 11.8 | 2.04 | 21.9 | 20.1 | 23.1 | 11.6 | 20.5 | 17.1 | 14.2 | 17.1
N=C(N)SCc1ccc2c(c1)Sc1ccccc1O2 | 7.79 | 3.11 | 19 | 46.9 | 16.9 | 26.8 | > 71.4 | 16.1 | 19.7 | 13.5 | 18.2
O=C1NCCN1/N=C/c1c(Cl)n(-c2ccccc2)c2ccccc12 | 33.7 | 29.3 | 21.6 | 40.2 | 62 | 49.7 | 58.3 | 35.9 | 51.7 | 67.3 | 55
NS(=O)(=O)c1cc2c(cc1Cl)NC(CCC(=O)O)=NS2(=O)=O | > 100 | > 100 | > 100 | > 100 | > 100 | > 100 | > 100 | > 100 | > 100 | > 100 | > 100
CN1CSC(=S)N(c2c3ccccc3nc3ccc(Br)cc23)C1 | 25.7 | 26.2 | 25.3 | 18.8 | 19.5 | 32.7 | 20.4 | 32.2 | 24 | 24.1 | 23.7
